Assays:
VEGFR-2 kinase = target: T1, VEGFR-2 kinase (Homo sapiens, UniProt P35968); assay: VEGFR-2 inhibition testing (ELISA kit); type: biochemical
T1 construct: purchased
Description: Enzyme linked immunosorbent assay (ELISA) technique was applied to human VEGFR-2 ELISA kit to calculate IC50 of all new derivatives against VEGFR-2 kinase. The antibody specific to the enzyme was planted on a 96 well microplate to which different micromolar concentrations of the positive control and the new compounds was added. […] Finally, stop solution (50 µL) was added and the reading was immediately determined at 450 nm. To get the standard curve, the concentrations used were presented on the X-axis and the corresponding absorbances were on the Y-axis.

MCF-7 = assay: In vitro antitumor MTT assay, MCF-7; type: cell-based, human; conditions: Homo sapiens, MCF7; MTT, mean ± S.D. of three experiments
Description: (§1) The antitumor assay was performed against the human cancer cell lines: HepG2, PC3, and MCF-7. The chemicals used in this test were supplied by Sigma-Aldrich with high analytical grade. National Cancer Institute (Cairo, Egypt) was the supplier of the cell lines tested which originally obtained from American Type Culture Collection (ATCC). MTT protocol was applied to quantitatively measure the antiproliferative activity of the new derivatives. In this test, the colour change is attributed to that the yellow tetrazolium bromide (MTT) is converted to formazan derivative which has purple colour. This biochemical reaction occurs only in viable cells by mitochondrial succinate dehydrogenase. The tested cells were initially cultured in RPMI-1640 medium with foetal bovine serum (10%). To the incubated cell, streptomycin (100 µg/mL) and penicillin (100 units/mL) were added in a 5% CO2 incubator at 37 °C. Then seeding of the cells was performed in a 96-well plate under 5% CO2 and at density of 1.0 × 10^4 cells/well at 37 °C for 48 h. Various non-toxic concentrations of the tested candidates were added and the cells were then incubated for further 24 h to the cells treated with the new compounds, MTT solution (20 µL at 5 mg/mL) was added, followed by 4 h incubation. One hundred microlitres of Dimethyl sulfoxide (DMSO) were added into each well to dissolve the purple formazan formed which is colorimetrically absorbed at 570 nm using a plate reader (EXL 800, USA). Finally, the percentages of cell viability was obtained as (A570 of treated samples/A570 of untreated sample) × 100.

HepG2 = assay: In vitro antitumor MTT assay, HepG2; type: cell-based, human; conditions: Homo sapiens, HepG2; MTT, mean ± S.D. of three experiments
Description: as §1

PC3 = assay: In vitro antitumor MTT assay, PC3; type: cell-based, human; conditions: Homo sapiens, PC-3; MTT, mean ± S.D. of three experiments
Description: as §1

WI-38 = assay: Cytotoxicity against normal lung fibroblasts (MTT); type: cell-based; conditions: normal human lung fibroblasts
Description: as §1
Of note, the cytotoxicity against normal human lung fibroblasts cell line (WI-38) were examined for the nine selected compounds.

FGFR = assay: Multi-kinase assay (HTRF), FGFR; type: biochemical
Description: Different kinases and ATP were obtained from Sigma. The specified kinase and its substrate was incubated with compound for 5 min in buffer solution to start the enzymatic reaction; ATP was then added to the reaction mixture and was maintained for 30 min at room temperature.

T1 sequence (P35968 20-1356): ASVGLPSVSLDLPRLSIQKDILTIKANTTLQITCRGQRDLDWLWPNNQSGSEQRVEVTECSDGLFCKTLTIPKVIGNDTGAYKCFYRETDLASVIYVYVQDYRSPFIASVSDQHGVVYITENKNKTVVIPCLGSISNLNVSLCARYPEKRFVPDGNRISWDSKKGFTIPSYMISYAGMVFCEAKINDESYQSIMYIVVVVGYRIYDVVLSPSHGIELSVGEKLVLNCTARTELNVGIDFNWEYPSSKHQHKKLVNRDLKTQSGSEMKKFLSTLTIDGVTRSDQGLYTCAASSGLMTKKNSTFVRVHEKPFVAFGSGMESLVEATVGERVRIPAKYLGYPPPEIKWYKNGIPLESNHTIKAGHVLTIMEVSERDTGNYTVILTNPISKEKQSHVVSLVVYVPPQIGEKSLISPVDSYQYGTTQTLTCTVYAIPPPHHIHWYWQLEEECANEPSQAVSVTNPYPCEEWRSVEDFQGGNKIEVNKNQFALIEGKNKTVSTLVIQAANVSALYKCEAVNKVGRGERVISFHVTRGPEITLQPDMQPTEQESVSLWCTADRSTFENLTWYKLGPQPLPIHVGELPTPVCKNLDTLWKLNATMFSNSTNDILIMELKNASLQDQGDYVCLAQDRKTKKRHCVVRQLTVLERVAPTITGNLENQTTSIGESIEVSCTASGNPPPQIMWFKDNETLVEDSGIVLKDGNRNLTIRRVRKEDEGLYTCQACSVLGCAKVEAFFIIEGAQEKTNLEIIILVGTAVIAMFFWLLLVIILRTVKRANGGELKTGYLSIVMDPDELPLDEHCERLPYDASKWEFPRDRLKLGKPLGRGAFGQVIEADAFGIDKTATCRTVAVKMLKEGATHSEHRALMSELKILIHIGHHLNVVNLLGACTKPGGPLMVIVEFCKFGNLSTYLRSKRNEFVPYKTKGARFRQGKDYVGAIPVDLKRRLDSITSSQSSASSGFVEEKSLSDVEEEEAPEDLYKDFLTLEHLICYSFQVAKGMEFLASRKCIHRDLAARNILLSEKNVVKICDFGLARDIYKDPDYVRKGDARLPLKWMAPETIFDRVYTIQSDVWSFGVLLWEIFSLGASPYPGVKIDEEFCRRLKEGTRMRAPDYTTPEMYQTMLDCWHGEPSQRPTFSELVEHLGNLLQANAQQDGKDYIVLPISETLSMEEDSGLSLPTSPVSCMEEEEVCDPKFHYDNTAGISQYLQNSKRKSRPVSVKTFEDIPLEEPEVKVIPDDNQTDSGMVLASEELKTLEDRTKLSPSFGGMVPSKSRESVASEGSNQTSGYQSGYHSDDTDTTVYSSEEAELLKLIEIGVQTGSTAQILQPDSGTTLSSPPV

## O=C(Nc1ccc(Oc2nc3ccccc3nc2Cl)cc1)c1ccc(Cl)cc1 [Compound 20b, 4-Chloro-N-(4-((3-chloroquinoxalin-2-yl)oxy)phenyl)benzamide]
other
  melting point: 264 to 265 °C
VEGFR-2 kinase
  IC50: 0.114 ± 0.00283 µM

## O=C(Nc1ccc(Oc2nc3ccccc3nc2Cl)cc1)c1cccc(Cl)c1 [Compound 20c, 3-Chloro-N-(4-((3-chloroquinoxalin-2-yl)oxy)phenyl)benzamide]
MCF-7
  IC50: 135 ± 9.02 µM
HepG2
  IC50: 144 ± 9.51 µM
other
  melting point: 243 to 244 °C
PC3
  IC50: 157 ± 10 µM
WI-38
  IC50: 402.9 ± 3.26 µM
VEGFR-2 kinase
  IC50: 0.0866 ± 0.00175 µM

## O=C(Nc1ccc(Oc2nc3ccccc3nc2Cl)cc1)c1cccnc1 [Compound 20d, N-(4-((3-Chloroquinoxalin-2-yl)oxy)phenyl)nicotinamide]
MCF-7
  IC50: 246 ± 13.6 µM
HepG2
  IC50: 221 ± 11.4 µM
other
  melting point: 219 to 220 °C
PC3
  IC50: > 300 µM
WI-38
  IC50: 460.7 ± 4.04 µM
VEGFR-2 kinase
  IC50: 0.0696 ± 0.00116 µM

## O=C(Nc1ccccc1)Nc1ccc(Oc2ccccc2[N+](=O)[O-])cc1 [Compound 22a, 1-(4-(2-Nitrophenoxy)phenyl)-3-phenylurea]
other
  melting point: 175 to 176 °C
VEGFR-2 kinase
  IC50: 0.124 ± 0.00378 µM

## CCCCNC(=O)Nc1ccc(Oc2ccccc2[N+](=O)[O-])cc1 [Compound 22b, 1-Butyl-3-(4-(2-nitrophenoxy)phenyl)urea]
other
  melting point: 163 to 164 °C
VEGFR-2 kinase
  IC50: 0.107 ± 0.002 µM

## O=C(Nc1ccc(Oc2ccccc2[N+](=O)[O-])cc1)c1ccccc1 [Compound 23a, N-(4–(2-Nitrophenoxy)phenyl)benzamide]
MCF-7
  IC50: 234 ± 13.2 µM
HepG2
  IC50: 153 ± 10.8 µM
other
  melting point: 197 to 198 °C
PC3
  IC50: 221 ± 12.9 µM
WI-38
  IC50: 758.2 ± 5.15 µM
VEGFR-2 kinase
  IC50: 0.0748 ± 0.00167 µM

## O=C(Nc1ccc(Oc2ccccc2[N+](=O)[O-])cc1)c1cccc(Cl)c1 [Compound 23b, 3-Chloro-N-(4–(2-nitrophenoxy)phenyl)benzamide]
other
  melting point: 169 to 170 °C
VEGFR-2 kinase
  IC50: 0.105 ± 0.0025 µM

## O=C(Nc1ccc(Oc2ccccc2[N+](=O)[O-])cc1)c1cccnc1 [Compound 23c, N-(4–(2-Nitrophenoxy)phenyl)nicotinamide]
other
  melting point: 160 to 161 °C
VEGFR-2 kinase
  IC50: 0.119 ± 0.00316 µM

## COc1cccc2c1C(=O)c1c(O)c3c(c(O)c1C2=O)C[C@@](O)(C(=O)CO)C[C@@H]3O[C@H]1C[C@H](N)[C@H](O)[C@H](C)O1 [Doxorubicin, reference compound]
MCF-7
  IC50: 12.4 ± 0.74 µM
HepG2
  IC50: 14.6 ± 1.1 µM
PC3
  IC50: 16.3 ± 1.1 µM

## C#Cc1cccc(Nc2ncnc3cc(OCCOC)c(OCCOC)cc23)c1 [Erlotinib, reference compound]
FGFR
  IC50: 0.034 ± 0.00092 µM

## CNC(=O)c1cc(Oc2ccc(NC(=O)Nc3ccc(Cl)c(C(F)(F)F)c3)cc2)ccn1 [Sorafenib, reference compound]
MCF-7
  IC50: 14.5 ± 1.68 µM
HepG2
  IC50: 12.9 ± 0.85 µM
PC3
  IC50: 19.4 ± 1.34 µM
